We go through 5 compounds from patent US7488716B2 (priority 2001, dated 2009).

Where a SMILES comes first, the peptide text is derived from it. The star is where a group is joined. Palmitoyl = CCCCCCCCCCCCCCCC(=O)*

A short description of assay [1]: Intraperitoneal glucose tolerance testing (IPGTT) in rats or mice. The class given is in vivo. Conditions: ipGTT in mice 3 hours post dosing with 100 μg/kg peptide. As to the method:
Blood glucose levels during intraperitoneal glucose tolerance testing in rats or mice by some polypeptides of the invention were measured as follows. The in vivo activity of the polypeptides of the invention when administered subcutaneously was examined in rats or mice. Rats or mice fasted overnight were given a subcutaneous injection of control or peptide (100 μg/kg). Basal blood glucose was measured prior to administration of peptides or three or 17 hours after administration of derivatized peptides, and the rats or mice were given 2 g/kg of glucose intraperitoneally. Blood glucose was measured again after 15, 30 and 60 minutes in rats or 30 and 60 minutes in mice.

Assay [2] concerns the target T1, glucagon receptor (Rattus norvegicus, UniProt P30082).
T1 construct: glucagon receptor present in the plasma membranes isolated from rat liver; from tissue; host or cells: rat liver plasma membranes
Kind of assay: Competitive binding of peptide to the glucagon receptor in rat liver plasma membranes (125I glucagon). Here is the method: The wet weight of the livers was determined and the tissue minced in 5 volumes of ice cold TES buffer and a slurry prepared using a polytron. All buffers and spins were kept at 4° C. The slurry was further homogenized using three strokes of a handheld dounce homogenizer. The homogenate was passed through several layers of cheesecloth and spun at 25,000×g for 10 minutes. Pellets were homogenized in 22.1 ml TES buffer using 10 strokes of a handheld dounce homogenizer. Twenty-seven point nine milliliters of 2.4 M sucrose in TE was added and mixed well. The homogenate was distributed among several tubes, and each tube was overlaid with 7 ml of TES buffer. The tubes were spun at 120,000×g for 60 minutes. The plasma membranes were removed from the interface that formed during the spin, diluted in TES and concentrated using a 15 minute spin at 200,000×g. The resulting pellet was again homogenized in 9.8 ml TES buffer, combined with 10.3 ml 2.4M sucrose, overlaid with 7 ml TES, and centrifuged at 180,000×g for 30 min. […] The final pellet was resuspended in TES. Plasma membranes were stored at −80° C. until ready for use.
Competitive binding of some polypeptides of the invention to rat liver plasma membranes was measured as follows. Ninety-six-well GF/C filtration plates (Millipore, Bedford, Mass.) were blocked with 0.1% PEI for at least one hour and washed twice with binding buffer consisting of 20 mM Tris, 2 mM EDTA, pH 7.5, 1 mg/ml BSA, and 1 mg/ml bacitracin. […] The plates were dried, scintillant was added to each well, and cpm per well determined using a Wallac Microbeta counter.

For assay [3], the target named is T2, GLP-1 receptor (Rattus norvegicus, UniProt P32301).
T2 construct: endogenous in cells; host or cells: RINm5F cells
T2 sequence (P32301 22-463): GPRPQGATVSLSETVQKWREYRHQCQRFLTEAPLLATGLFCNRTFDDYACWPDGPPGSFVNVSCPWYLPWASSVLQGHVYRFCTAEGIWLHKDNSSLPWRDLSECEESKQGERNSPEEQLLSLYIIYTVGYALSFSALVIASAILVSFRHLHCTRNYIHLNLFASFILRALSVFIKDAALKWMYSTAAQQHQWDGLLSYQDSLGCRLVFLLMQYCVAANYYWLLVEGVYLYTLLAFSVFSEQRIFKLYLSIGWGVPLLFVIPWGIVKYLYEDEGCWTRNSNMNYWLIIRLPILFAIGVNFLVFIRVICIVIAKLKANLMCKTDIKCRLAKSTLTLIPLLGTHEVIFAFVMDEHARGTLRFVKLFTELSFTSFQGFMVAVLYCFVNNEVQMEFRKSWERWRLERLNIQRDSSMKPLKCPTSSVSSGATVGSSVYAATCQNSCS
Nature of the assay: Peptide signaling through GLP-1 receptor, cAMP scintillation proximity assay in RINm5F cells. Conditions: for GLP1 Relative Potency: EC50 of native GLP-1 (7-36) divided by EC50 of polypeptide x 100, cAMP in RINm5F cells; for Emax: RIN-m5F, read-out: % GLP1 max. The class given is cell-based. Here is the method: The media was removed and the cells were washed twice with PBS. […] For assay of peptides conjugated with fatty acid, the BSA was omitted from the incubation buffer. The incubation buffer was removed, and the cells were lysed in the lysis reagent provided with the cAMP Scintillation Proximity Assay (SPA) direct screening assay system (Amersham Pharmacia Biotech Inc, Piscataway, N.J.). The amount of cAMP (in pmol) present in the lysates was determined following instructions provided with this kit.
The amount of cAMP (in pmol) produced at each concentration of peptide was plotted and analyzed by nonlinear regression using Prizm software to determine the EC50 for each peptide.
(Scintillation proximity formats need no separation of bound from free tracer.)

Assay [4] deals with T2, GLP-1 receptor. Nature of the assay: Competitive binding of peptide to the GLP-1 receptor in RINm5F cell plasma membranes (125I GLP-1). Conditions: read-out: GLP1 RIN IC50. Here is the method:
Flasks of RINm5F cells were washed with PBS, scraped in 20 mM Hepes-1 mM EDTA-250 mM sucrose buffer containing protease inhibitors (HES) and homogenized in a dounce homogenizer followed by repeated resuspension through a 23 gauge needle. Unbroken cells and nuclei were removed by centrifugation at 500×g for 5 minutes. The pellet was resuspended in HES buffer using a 23 gauge needle and the centrifugation was repeated. The supernatants from the two spins were combined and centrifuged at 40,000×g for 20 min. The resulting plasma membrane pellet was resuspended in HES buffer using a 23 gauge needle followed by a 25 gauge needle. Membranes were stored at −80° C. until use.
Competitive binding of some polypeptides of the invention to RINm5F cell plasma membranes was measured as follows. Ninety-six-well GF/C filtration plates (Millipore, Bedford, Mass.) were blocked with 0.3% PEI for at least one hour and washed twice with binding buffer consisting of 20 mM Tris, 2 mM EDTA, pH 7.5, 1 mg/ml BSA, and 1 mg/ml bacitracin. […] The plates were dried, scintillant was added to each well, and cpm per well determined using a Wallac Microbeta counter.

T1 sequence (P30082 27-485): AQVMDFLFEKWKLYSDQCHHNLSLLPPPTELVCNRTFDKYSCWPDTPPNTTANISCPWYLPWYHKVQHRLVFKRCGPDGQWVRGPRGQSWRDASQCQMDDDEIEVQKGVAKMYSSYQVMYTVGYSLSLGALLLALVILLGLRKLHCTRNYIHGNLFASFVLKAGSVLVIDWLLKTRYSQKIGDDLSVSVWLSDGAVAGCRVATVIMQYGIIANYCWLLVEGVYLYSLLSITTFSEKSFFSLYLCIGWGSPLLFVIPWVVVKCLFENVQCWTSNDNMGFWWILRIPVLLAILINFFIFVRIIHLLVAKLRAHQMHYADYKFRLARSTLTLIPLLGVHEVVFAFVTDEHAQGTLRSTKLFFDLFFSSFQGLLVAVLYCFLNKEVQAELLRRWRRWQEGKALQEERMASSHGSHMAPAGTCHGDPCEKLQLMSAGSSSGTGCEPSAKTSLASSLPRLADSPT

With `CCCCCCCCCCCCCCCC(=O)NCCCC[C@H](NC(=O)[C@@H](NC(=O)[C@H](Cc1ccccc1)NC(=O)[C@H](CCC(=O)O)NC(=O)[C@H](CCCNC(=N)N)NC(=O)[C@H](C)NC(=O)[C@H](CCCNC(=N)N)NC(=O)[C@H](CCCNC(=N)N)NC(=O)[C@H](C)NC(=O)[C@H](CC(=O)O)NC(=O)[C@H](CC(C)C)NC(=O)[C@H](Cc1ccc(O)cc1)NC(=O)[C@H](CCCNC(=N)N)NC(=O)[C@H](C)NC(=O)[C@H](Cc1ccc(O)cc1)NC(=O)[C@H](CC(=O)O)NC(=O)[C@H](CO)NC(=O)[C@@H](NC(=O)[C@H](Cc1ccccc1)NC(=O)[C@@H](NC(=O)CNC(=O)[C@H](CCC(N)=O)NC(=O)[C@H](CO)NC(=O)[C@@H](N)Cc1c[nH]cn1)[C@@H](C)O)[C@@H](C)O)[C@@H](C)CC)C(=O)N[C@@H](Cc1c[nH]c2ccccc12)C(=O)N[C@@H](CC(C)C)C(=O)N[C@H](C(=O)N[C@@H](CCCNC(=N)N)C(=O)NCC(=O)N[C@@H](CCCNC(=N)N)C(=O)NCC(=O)O)C(C)C` [G90], the “In vivo Decrease IpGTT AUC” value in assay [1] came to 13%. Also, in assay [2], the half-inhibitory concentration (IC50) (commonly the concentration that gives 50% inhibition) was determined as 726 nM. In assay [3], the “GLP1 Relative Potency” value amounted to 0.8% and the Emax was 83.5%. The IC50 in assay [4] came out at 25.4 nM.
Regarding `CCCCCCCCCCCCCCCC(=O)NCCCC[C@H](NC(=O)CNC(=O)[C@H](CCCNC(=N)N)NC(=O)CNC(=O)[C@H](CCCNC(=N)N)NC(=O)[C@@H](NC(=O)[C@H](CC(C)C)NC(=O)[C@H](Cc1c[nH]c2ccccc12)NC(=O)[C@H](CCCCN)NC(=O)[C@@H](NC(=O)[C@H](Cc1ccccc1)NC(=O)[C@H](CCC(=O)O)NC(=O)[C@H](CCCNC(=N)N)NC(=O)[C@H](C)NC(=O)[C@H](CCCNC(=N)N)NC(=O)[C@H](CCCNC(=N)N)NC(=O)[C@H](C)NC(=O)[C@H](CC(=O)O)NC(=O)[C@H](CC(C)C)NC(=O)[C@H](Cc1ccc(O)cc1)NC(=O)[C@H](CCCNC(=N)N)NC(=O)[C@H](C)NC(=O)[C@H](Cc1ccc(O)cc1)NC(=O)[C@H](CC(=O)O)NC(=O)[C@H](CO)NC(=O)[C@@H](NC(=O)[C@H](Cc1ccccc1)NC(=O)[C@@H](NC(=O)CNC(=O)[C@H](CCC(N)=O)NC(=O)[C@H](CO)NC(=O)[C@@H](N)Cc1c[nH]cn1)[C@@H](C)O)[C@@H](C)O)[C@@H](C)CC)C(C)C)C(=O)O` [G182] (H-HSQGTFTSDYARYLDARRAREFIKWLVRGRGK(Palmitoyl)-OH; N-terminus and C-terminus assumed), the “In vivo Decrease IpGTT AUC” value in assay [1] came to 14%. Moreover, the 50% inhibitory concentration (IC50) in assay [2] amounted to 220 nM; in assay [4], 12.6 nM. Besides, the “GLP1 Relative Potency” value in assay [3] came out at 1.4%. Moreover, the Emax in assay [3] was determined as 104%.
On the same counts, the results for `CCCCCCCCCCCCCCCC(=O)NCCCC[C@H](NC(=O)[C@H](C)NC(=O)[C@H](CCCNC(=N)N)NC(=O)[C@H](CCCNC(=N)N)NC(=O)[C@H](C)NC(=O)[C@H](CC(=O)O)NC(=O)[C@H](CC(C)C)NC(=O)[C@H](Cc1ccc(O)cc1)NC(=O)[C@H](CCCCN)NC(=O)[C@H](C)NC(=O)[C@H](Cc1ccc(O)cc1)NC(=O)[C@H](CC(=O)O)NC(=O)[C@H](CO)NC(=O)[C@@H](NC(=O)[C@H](Cc1ccccc1)NC(=O)[C@@H](NC(=O)CNC(=O)[C@H](CCC(N)=O)NC(=O)[C@H](CO)NC(=O)[C@@H](N)Cc1c[nH]cn1)[C@@H](C)O)[C@@H](C)O)C(=O)N[C@@H](CCC(=O)O)C(=O)N[C@@H](Cc1ccccc1)C(=O)N[C@H](C(=O)N[C@@H](C)C(=O)N[C@@H](Cc1c[nH]c2ccccc12)C(=O)N[C@@H](CC(C)C)C(=O)N[C@H](C(=O)N[C@@H](CCCCN)C(=O)NCC(=O)N[C@@H](CCCNC(=N)N)C(N)=O)C(C)C)[C@@H](C)CC` [G87] (H-HSQGTFTSDYAKYLDARRAK(Palmitoyl)EFIAWLVKGR-NH2; N-terminus assumed) are 13%, 620 nM, 98.6 nM, 6.1% and 100%.
With `CCCCCCCCCCCCCCCC(=O)NCCCC[C@H](NC(=O)[C@H](C)NC(=O)[C@H](CCCNC(=N)N)NC(=O)[C@H](CCCNC(=N)N)NC(=O)[C@H](C)NC(=O)[C@H](CC(=O)O)NC(=O)[C@H](CC(C)C)NC(=O)[C@H](Cc1ccc(O)cc1)NC(=O)[C@H](CCCNC(=N)N)NC(=O)[C@H](C)NC(=O)[C@H](Cc1ccc(O)cc1)NC(=O)[C@H](CC(=O)O)NC(=O)[C@H](CO)NC(=O)[C@@H](NC(=O)[C@H](Cc1ccccc1)NC(=O)[C@@H](NC(=O)CNC(=O)[C@H](CCC(N)=O)NC(=O)[C@H](CO)NC(=O)[C@@H](N)Cc1c[nH]cn1)[C@@H](C)O)[C@@H](C)O)C(=O)N[C@@H](CCC(=O)O)C(=O)N[C@@H](Cc1ccccc1)C(=O)N[C@H](C(=O)N[C@@H](CCCCN)C(=O)N[C@@H](Cc1c[nH]c2ccccc12)C(=O)N[C@@H](CC(C)C)C(=O)N[C@H](C(=O)N[C@@H](CCCNC(=N)N)C(=O)NCC(=O)N[C@@H](CCCNC(=N)N)C(=O)NCC(=O)O)C(C)C)[C@@H](C)CC` [G183] (H-HSQGTFTSDYARYLDARRAK(Palmitoyl)EFIKWLVRGRG-OH; N-terminus and C-terminus assumed), the “In vivo Decrease IpGTT AUC” value in assay [1] stood at 27%. In assay [3], the “GLP1 Relative Potency” value is reported as 0.6% and the Emax was 90.5%.
As for `CCCCCCCCCCCCCCCC(=O)NCCCC[C@H](NC(=O)[C@H](CCCNC(=N)N)NC(=O)CNC(=O)[C@H](CCCCN)NC(=O)[C@@H](NC(=O)[C@H](CC(C)C)NC(=O)[C@H](Cc1c[nH]c2ccccc12)NC(=O)[C@H](C)NC(=O)[C@@H](NC(=O)[C@H](Cc1ccccc1)NC(=O)[C@H](CCC(=O)O)NC(=O)[C@H](CCCCN)NC(=O)[C@H](C)NC(=O)[C@H](CCCNC(=N)N)NC(=O)[C@H](CCCNC(=N)N)NC(=O)[C@H](C)NC(=O)[C@H](CC(=O)O)NC(=O)[C@H](CC(C)C)NC(=O)[C@H](Cc1ccc(O)cc1)NC(=O)[C@H](CCCCN)NC(=O)[C@H](C)NC(=O)[C@H](Cc1ccc(O)cc1)NC(=O)[C@H](CC(=O)O)NC(=O)[C@H](CO)NC(=O)[C@@H](NC(=O)[C@H](Cc1ccccc1)NC(=O)[C@@H](NC(=O)CNC(=O)[C@H](CCC(N)=O)NC(=O)[C@H](CO)NC(=O)[C@@H](N)Cc1c[nH]cn1)[C@@H](C)O)[C@@H](C)O)[C@@H](C)CC)C(C)C)C(=O)O` [G88] (H-HSQGTFTSDYAKYLDARRAKEFIAWLVKGRK(Palmitoyl)-OH; N-terminus and C-terminus assumed), in assay [1], the “In vivo Decrease IpGTT AUC” value is on record as 16%. In assay [2], this compound displayed an IC50 of 350 nM. Further, in assay [3], the “GLP1 Relative Potency” value came to 2.3% and the Emax amounted to 118%. For the same compound, in assay [4], the IC50 is 109 nM.
